Measurements taken from ChEMBL document CHEMBL4033677, “Design and synthesis of pyrazolo[3,4-d]pyrimidines: Nitric oxide releasing compounds targeting hepatocellular carcinoma” (Bioorg Med Chem, 2017).

Legend:
Type in all cases: functional
Malme-3M = experiment: Growth inhibition of human MALME-3M cells assessed as cell growth at 10^-5 M incubated for 48 hrs by sulforhodamine B assay relative to control; settings: read-out: Activity
UACC-257 = experiment: Growth inhibition of human UACC257 cells assessed as cell growth at 10^-5 M incubated for 48 hrs by sulforhodamine B assay relative to control; settings: UACC-257, 48 h, read-out: Activity
M14 = experiment: Growth inhibition of human M14 cells assessed as cell growth at 10^-5 M incubated for 48 hrs by sulforhodamine B assay relative to control; settings: M14, 48 h, read-out: Activity
TK-10 = experiment: Growth inhibition of human TK10 cells assessed as cell growth at 10^-5 M incubated for 48 hrs by sulforhodamine B assay relative to control; settings: TK-10, 48 h, read-out: Activity
HCT-116 = experiment: Growth inhibition of human HCT116 cells assessed as cell growth at 10^-5 M incubated for 48 hrs by sulforhodamine B assay relative to control; settings: HCT-116, 48 h, read-out: Activity
SN12C = experiment: Growth inhibition of human SN12C cells assessed as cell growth at 10^-5 M incubated for 48 hrs by sulforhodamine B assay relative to control; settings: read-out: Activity
MCF7 = experiment: Growth inhibition of human MCF7 cells assessed as cell growth at 10^-5 M incubated for 48 hrs by sulforhodamine B assay relative to control; settings: MCF7, 48 h, read-out: Activity
NCI-H522 = experiment: Growth inhibition of human NCI-H522 cells assessed as cell growth at 10^-5 M incubated for 48 hrs by sulforhodamine B assay relative to control; settings: NCI-H522, 48 h, read-out: Activity
OVCAR-3 = experiment: Growth inhibition of human OVCAR3 cells assessed as cell growth at 10^-5 M incubated for 48 hrs by sulforhodamine B assay relative to control; settings: OVCAR-3, 48 h, read-out: Activity
MDA-MB-435 = experiment: Growth inhibition of human MDA-MB-435 cells assessed as cell growth at 10^-5 M incubated for 48 hrs by sulforhodamine B assay relative to control; settings: MDA-MB-435, 48 h, read-out: Activity
OVCAR-8 = experiment: Growth inhibition of human OVCAR8 cells assessed as cell growth at 10^-5 M incubated for 48 hrs by sulforhodamine B assay relative to control; settings: OVCAR-8, 48 h, read-out: Activity
SK-MEL-5 = experiment: Growth inhibition of human SK-MEL-5 cells assessed as cell growth at 10^-5 M incubated for 48 hrs by sulforhodamine B assay relative to control; settings: SK-MEL-5, 48 h, read-out: Activity
SK-OV-3 = experiment: Growth inhibition of human SKOV3 cells assessed as cell growth at 10^-5 M incubated for 48 hrs by sulforhodamine B assay relative to control; settings: SK-OV-3, 48 h, read-out: Activity
BT-549 = experiment: Growth inhibition of human BT549 cells assessed as cell growth at 10^-5 M incubated for 48 hrs by sulforhodamine B assay relative to control; settings: BT-549, 48 h, read-out: Activity
SK-MEL-2 = experiment: Growth inhibition of human SK-MEL-2 cells assessed as cell growth at 10^-5 M incubated for 48 hrs by sulforhodamine B assay relative to control; settings: SK-MEL-2, 48 h, read-out: Activity
OVCAR-4 = experiment: Growth inhibition of human OVCAR4 cells assessed as cell growth at 10^-5 M incubated for 48 hrs by sulforhodamine B assay relative to control; settings: OVCAR-4, 48 h, read-out: Activity
UACC-62 = experiment: Growth inhibition of human UACC62 cells assessed as cell growth at 10^-5 M incubated for 48 hrs by sulforhodamine B assay relative to control; settings: UACC-62, 48 h, read-out: Activity
SR = experiment: Growth inhibition of human SR cells assessed as cell growth at 10^-5 M incubated for 48 hrs by sulforhodamine B assay relative to control; settings: read-out: Activity
SF-295 = experiment: Growth inhibition of human SF295 cells assessed as cell growth at 10^-5 M incubated for 48 hrs by sulforhodamine B assay relative to control; settings: SF-295, 48 h, read-out: Activity
NCI-H460 = experiment: Growth inhibition of human NCI-H460 cells assessed as cell growth at 10^-5 M incubated for 48 hrs by sulforhodamine B assay relative to control; settings: NCI-H460, 48 h, read-out: Activity
HT-29 = experiment: Growth inhibition of human HT-29 cells assessed as cell growth at 10^-5 M incubated for 48 hrs by sulforhodamine B assay relative to control; settings: HT-29, 48 h, read-out: Activity
COLO 205 = experiment: Growth inhibition of human COLO205 cells assessed as cell growth at 10^-5 M incubated for 48 hrs by sulforhodamine B assay relative to control; settings: COLO 205, 48 h, read-out: Activity
MDA-MB-468 = experiment: Growth inhibition of human MDA-MB-468 cells assessed as cell growth at 10^-5 M incubated for 48 hrs by sulforhodamine B assay relative to control; settings: MDA-MB-468, 48 h, read-out: Activity
SK-MEL-28 = experiment: Growth inhibition of human SK-MEL-28 cells assessed as cell growth at 10^-5 M incubated for 48 hrs by sulforhodamine B assay relative to control; settings: SK-MEL-28, 48 h, read-out: Activity
MDA-MB-231 = experiment: Growth inhibition of human MDA-MB-231 cells assessed as cell growth at 10^-5 M incubated for 48 hrs by sulforhodamine B assay relative to control; settings: MDA-MB-231, 48 h, read-out: Activity
NCI-H226 = experiment: Growth inhibition of human NCI-H226 cells assessed as cell growth at 10^-5 M incubated for 48 hrs by sulforhodamine B assay relative to control; settings: NCI-H226, 48 h, read-out: Activity
HCT-15 = experiment: Growth inhibition of human HCT15 cells assessed as cell growth at 10^-5 M incubated for 48 hrs by sulforhodamine B assay relative to control; settings: HCT-15, 48 h, read-out: Activity
K562 = experiment: Growth inhibition of human K562 cells assessed as cell growth at 10^-5 M incubated for 48 hrs by sulforhodamine B assay relative to control; settings: K562, 48 h, read-out: Activity
T47D = experiment: Growth inhibition of human T47D cells assessed as cell growth at 10^-5 M incubated for 48 hrs by sulforhodamine B assay relative to control; settings: read-out: Activity
NCI-H23 = experiment: Growth inhibition of human NCI-H23 cells assessed as cell growth at 10^-5 M incubated for 48 hrs by sulforhodamine B assay relative to control; settings: NCI-H23, 48 h, read-out: Activity
HL-60(TB) = experiment: Growth inhibition of human HL-60(TB) cells assessed as cell growth at 10^-5 M incubated for 48 hrs by sulforhodamine B assay relative to control; settings: HL-60, 48 h, read-out: Activity
U-251 = experiment: Growth inhibition of human U251 cells assessed as cell growth at 10^-5 M incubated for 48 hrs by sulforhodamine B assay relative to control; settings: U-251, 48 h, read-out: Activity

Cc1nc(Nc2ccc(OCCCBr)cc2)c2cnn(-c3ccccc3)c2n1
growth at 10 µM (Malme-3M): 98.2% | growth at 10 µM (UACC-257): 94.4% | growth at 10 µM (M14): 94.5% | growth at 10 µM (TK-10): 113% | growth at 10 µM (HCT-116): 67.2% | growth at 10 µM (SN12C): 91.8% | growth at 10 µM (MCF7): 82.4% | growth at 10 µM (NCI-H522): 81.6% | growth at 10 µM (OVCAR-3): 106% | growth at 10 µM (MDA-MB-435): 107% | growth at 10 µM (OVCAR-8): 75.7% | growth at 10 µM (SK-MEL-5): 96.2% | growth at 10 µM (SK-OV-3): 82.9% | growth at 10 µM (BT-549): 92.9% | growth at 10 µM (SK-MEL-2): 98% | growth at 10 µM (OVCAR-4): 94.3% | growth at 10 µM (UACC-62): 86.2% | growth at 10 µM (SR): 85.2% | growth at 10 µM (SF-295): 101% | growth at 10 µM (NCI-H460): 95.1% | growth at 10 µM (HT-29): 96.6% | growth at 10 µM (COLO 205): 106% | growth at 10 µM (MDA-MB-468): 98.9% | growth at 10 µM (SK-MEL-28): 107% | growth at 10 µM (MDA-MB-231): 80.4% | growth at 10 µM (NCI-H226): 81.1% | growth at 10 µM (HCT-15): 99.2% | growth at 10 µM (K562): 102% | growth at 10 µM (T47D): 83.6% | growth at 10 µM (NCI-H23): 90.7% | growth at 10 µM (HL-60(TB)): 97.6% | growth at 10 µM (U-251): 81.4%

BrCCCOc1ccc(Nc2ncnc3c2cnn3-c2ccccc2)cc1
growth at 10 µM (Malme-3M): 112% | growth at 10 µM (UACC-257): 109% | growth at 10 µM (M14): 100% | growth at 10 µM (TK-10): 128% | growth at 10 µM (HCT-116): 96.7% | growth at 10 µM (SN12C): 94% | growth at 10 µM (MCF7): 88.8% | growth at 10 µM (NCI-H522): 78.4% | growth at 10 µM (OVCAR-3): 97% | growth at 10 µM (MDA-MB-435): 101% | growth at 10 µM (OVCAR-8): 92.7% | growth at 10 µM (SK-MEL-5): 93% | growth at 10 µM (SK-OV-3): 90.2% | growth at 10 µM (BT-549): 93.4% | growth at 10 µM (SK-MEL-2): 98% | growth at 10 µM (OVCAR-4): 93.3% | growth at 10 µM (UACC-62): 91.4% | growth at 10 µM (SR): 82.6% | growth at 10 µM (SF-295): 107% | growth at 10 µM (NCI-H460): 107% | growth at 10 µM (HT-29): 99.4% | growth at 10 µM (COLO 205): 103% | growth at 10 µM (MDA-MB-468): 99.7% | growth at 10 µM (SK-MEL-28): 107% | growth at 10 µM (MDA-MB-231): 96.9% | growth at 10 µM (NCI-H226): 84.1% | growth at 10 µM (HCT-15): 59.2% | growth at 10 µM (K562): 105% | growth at 10 µM (T47D): 84.2% | growth at 10 µM (NCI-H23): 91.5% | growth at 10 µM (HL-60(TB)): 95.8% | growth at 10 µM (U-251): 94.6%

Cc1nc(Nc2ccc(OCCCBr)cc2)c2c(C)nn(-c3ccccc3)c2n1
growth at 10 µM (Malme-3M): 107% | growth at 10 µM (UACC-257): 93.3% | growth at 10 µM (M14): 94% | growth at 10 µM (TK-10): 94.5% | growth at 10 µM (HCT-116): 81.3% | growth at 10 µM (SN12C): 78.8% | growth at 10 µM (MCF7): 90.3% | growth at 10 µM (NCI-H522): 76.1% | growth at 10 µM (OVCAR-3): 107% | growth at 10 µM (MDA-MB-435): 100% | growth at 10 µM (OVCAR-8): 94.6% | growth at 10 µM (SK-MEL-5): 96.1% | growth at 10 µM (SK-OV-3): 96% | growth at 10 µM (BT-549): 91.6% | growth at 10 µM (SK-MEL-2): 91.5% | growth at 10 µM (OVCAR-4): 99.5% | growth at 10 µM (UACC-62): 83% | growth at 10 µM (SR): 74.6% | growth at 10 µM (SF-295): 96.3% | growth at 10 µM (NCI-H460): 113% | growth at 10 µM (HT-29): 93.7% | growth at 10 µM (COLO 205): 108% | growth at 10 µM (MDA-MB-468): 95% | growth at 10 µM (SK-MEL-28): 105% | growth at 10 µM (MDA-MB-231): 94% | growth at 10 µM (NCI-H226): 90% | growth at 10 µM (HCT-15): 94% | growth at 10 µM (K562): 100% | growth at 10 µM (T47D): 83.5% | growth at 10 µM (NCI-H23): 97.5% | growth at 10 µM (HL-60(TB)): 96.2% | growth at 10 µM (U-251): 90.5%

Cc1nn(-c2ccccc2)c2ncnc(Nc3ccc(OCCCBr)cc3)c12
growth at 10 µM (Malme-3M): 106% | growth at 10 µM (UACC-257): 84.8% | growth at 10 µM (M14): 91.3% | growth at 10 µM (TK-10): 89.9% | growth at 10 µM (HCT-116): 81.5% | growth at 10 µM (SN12C): 95.2% | growth at 10 µM (MCF7): 93.8% | growth at 10 µM (NCI-H522): 45.6% | growth at 10 µM (OVCAR-3): 103% | growth at 10 µM (MDA-MB-435): 100% | growth at 10 µM (OVCAR-8): 94.2% | growth at 10 µM (SK-MEL-5): 86.6% | growth at 10 µM (SK-OV-3): 81% | growth at 10 µM (BT-549): 97.8% | growth at 10 µM (SK-MEL-2): 84% | growth at 10 µM (OVCAR-4): 99.6% | growth at 10 µM (UACC-62): 89.3% | growth at 10 µM (SR): 81.4% | growth at 10 µM (SF-295): 93% | growth at 10 µM (NCI-H460): 123% | growth at 10 µM (HT-29): 58.2% | growth at 10 µM (COLO 205): 105% | growth at 10 µM (MDA-MB-468): 95.5% | growth at 10 µM (SK-MEL-28): 101% | growth at 10 µM (MDA-MB-231): 87.4% | growth at 10 µM (NCI-H226): 101% | growth at 10 µM (HCT-15): 90% | growth at 10 µM (K562): 100% | growth at 10 µM (T47D): 84.8% | growth at 10 µM (NCI-H23): 99% | growth at 10 µM (HL-60(TB)): 104% | growth at 10 µM (U-251): 89%
